# Test system: alcohol preferring rats
# Test: Alcohol Preferring Rats In Vivo Model, acute oral dosing, two-bottle choice
# Parameters: species or system rat
# Settings: for Alcohol Intake / Alcohol Preference: mean ± S.E.M., N = 14
# Experimental: Adult male selectively-bred alcohol preferring rats (N=14) were used. This particular strain of alcohol drinking rat has been characterized and have been widely used to study the effects of different compounds on voluntary alcohol intake (Farren et al., 2000; Rezvani et al, 1990, 1991, 1992a, 1992b, 1999, 2000, 2003; Murphy et al, 1988; Overstreet et al., 2003, 1999; Li and McBride, 1990). Rats were housed individually in approved cages under a constant room temperature of 22+1° C. and 12:12 light-dark cycle (8:00-20:00, dark). Animal were fed Agway Prolab Rat/Mouse/Hamster 3000 formula and water ad libitum.
# Alcohol intake was determined using the standard two-bottle choice method utilized in our and other laboratories for many years (Murphy et al. 1988; Rezvani et al. 1990, 1991, 1993, 1995, 1997, Rezvani and Grady, 1994, Rezvani et al., 1993). Animals were first given free access to water in a graduated Richter tube for 2 days. Next, they were given access to only a solution of 10% (v/v) ethanol for 3 consecutive days. During this period animals became accustomed to drinking from Richter tubes and to the taste and pharmacological effects of alcohol. Thereafter, they were given free access to both water and a solution of 10% alcohol for at least 4 consecutive weeks and throughout of the period of study. Rats had free access to food. Water and alcohol intake were recorded at 6 and 24 hour after the treatment, whereas food intake was measured at 24 hour. Animals' body weights were measured the day of the treatment and the day after.
# After establishment of stable baseline for alcohol, food, and water intake, rats were administered (gavage) at 9:30 a.m. either with the vehicle or the compound of formula (I) at one of four doses (1,3,10 and 30 mg/kg) using a cross-over design with random assignment. To be able to compare the efficacy of the compound of formula (I) on alcohol intake naltrexone was included as a positive control. The same rats were given an oral dose of 20 mg/kg naltrexone. All animals will receive all treatments in a random order. The interval between treatments was at least 1 week. Alcohol and water intake were recorded 6 and 24 h after the drug administration and food intake was recorded at 24 hr. The volume of the drug administration was 6 ml/kg.
# The results at 6 and 24 hours post-dosing are presented in Tables 3 and 4 below, as means ±SEM. Alcohol intake (g/kg) was calculated by multiplying the volume of alcohol consumed in ml by 10% and 0.7893 (ethanol density)/body weight in kg. Alcohol preference, expressed as a percentage, was calculated as follows (volume of alcohol consumed in ml/total fluid intake in ml)×100 (Rezvani and Grady, 1994; Rezvani et al., 1997). Statistical differences between drug-treated and control groups were determined by using ANOVA with repeated measures. Each treatment was compared with the corresponding vehicle value.
# [1] = 1 mg/kg p.o., 6 hrs post-dosing
# [2] = 1 mg/kg p.o., 24 hrs post-dosing
# [3] = 3 mg/kg p.o., 6 hrs post-dosing
# [4] = 3 mg/kg p.o., 24 hrs post-dosing
# [5] = 10 mg/kg p.o., 6 hrs post-dosing
# [6] = 10 mg/kg p.o., 24 hrs post-dosing
# [7] = 30 mg/kg p.o, 6 hrs post-dosing
# [8] = 30 mg/kg p.o, 24 hrs post-dosing
# [9] = 20 mg/kg p.o., 6 hrs post-dosing
# [10] = 20 mg/kg p.o., 24 hrs post-dosing
smiles,measurement,setting,value
"Cc1cccc2cccc(CN3CCC4(CC3)C(=O)N(C[C@H](O)CN)CN4c3ccc(F)cc3)c12 [Cmpd (I-A), 3-(3-amino-2-(R)-hydroxy-propyl)-1-(4-fluoro-phenyl)-8-(8-methyl-naphthalen-1-ylmethyl)-1,3,8-triazaspiro[4.5]decan-4-one]",Alcohol Intake,[1],1.85 ± 0.234 g/kg
same,Alcohol Preference,[1],75.1 ± 5.60%
same,Alcohol Intake,[2],4.95 ± 0.389 g/kg
same,Alcohol Preference,[2],80.4 ± 4.68%
same,Alcohol Intake,[3],1.53 ± 0.184 g/kg
same,Alcohol Preference,[3],61.6 ± 6.19%
same,Alcohol Intake,[4],4.43 ± 0.339 g/kg
same,Alcohol Preference,[4],68.9 ± 4.87%
same,Alcohol Intake,[5],1.59 ± 0.238 g/kg
same,Alcohol Preference,[5],62.4 ± 6.33%
same,Alcohol Intake,[6],4.73 ± 0.351 g/kg
same,Alcohol Preference,[6],71.7 ± 3.56%
same,Alcohol Intake,[7],0.905 ± 0.198 g/kg
same,Alcohol Preference,[7],46.7 ± 8.20%
same,Alcohol Intake,[8],3.16 ± 0.582 g/kg
same,Alcohol Preference,[8],50.1 ± 7.77%
same,Alcohol preference compared with vehicle,"30 mg/kg, both 6 hours and 24 hours post-dosing",reduced alcohol preference
same,Alcohol intake compared with vehicle,"acute oral administration of 3, 10 and 30 mg/kg, at 6 hr",significantly reduced alcohol intake
same,Alcohol intake compared with vehicle,"at 24 hr, only ""the mg/kg dose"" (dose figure missing)",statistically significantly (p<0.0002) in reducing alcohol intake
same,Alcohol preference compared with vehicle,"other doses (1, 3, 10 mg/kg), 6 hours and 24 hours post-dosing",did not significantly affect alcohol preference
"O=C1CC[C@@]2(O)[C@H]3Cc4ccc(O)c5c4[C@@]2(CCN3CC2CC2)[C@H]1O5 [Naltrexone, naltrexone, reference compound]",Alcohol Intake,[9],1.19 ± 0.25 g/kg
same,Alcohol Preference,[9],46.8 ± 7.91%
same,Alcohol Intake,[10],3.64 ± 0.545 g/kg
same,Alcohol Preference,[10],58.8 ± 6.77%
same,Alcohol intake compared with vehicle,"naltrexone 20 mg/kg oral, 24 hr post-dosing",remained statistically significantly (p<0.0028) in reducing alcohol intake
same,Alcohol preference compared with vehicle,"naltrexone 20 mg/kg oral, both 6 hours and 24 hours post-dosing",reduced alcohol preference
